# Data as given in US10206399B2, “Herbicidal composition comprising uracil compound as active ingredient” (Dongbu Farm Hannong Co., Ltd., priority 2012, dated 2019).
# Read-outs that look alike come from different tables or passages of the source.
# Key:
# Echinochloa crus [1] = experiment: Paddy field farming herbicidal composition test, plant mortality; assay type: in vivo; details: Echinochloa; 5 g/ha; read-out: Echinochloa crus mortality (measured value)
# Excerpt: (§1) X is % damage by uracil compound (a) of formula 1 at the rate of application of p kg/ha; Y is % damage by conventional herbicidal compound (b) at the rate of application of q kg/ha; and E is the expected damage caused by compounds (a) and (b) at a rate of application of p and q kg/ha.
# (§2) The expected activity for a given combination of two herbicides can be calculated using equation 1 above.
# Abutilon theophrasti [2] = experiment: whole plant or invertebrate
# Excerpt: as §1, §2
# Digitaria sanguinalis [3] = details: for Digitaria sanguinalis mortality, measured value: 20 days after treatment
# Excerpt: as §1, §2
# Capsella bursapastoris = experiment: Dry field farming herbicidal composition test, plant mortality; assay type: in vivo; details: in % (unit assumed)
# Excerpt: as §1, §2
# Aeschynomene indica [4] = experiment: whole plant or invertebrate
# Excerpt: as §1, §2
# rice plant = experiment: Paddy field farming herbicidal composition test, plant mortality (crop)
# Excerpt: as §1, §2
# Digitaria sanguinalis [5] = experiment: Dry field farming herbicidal composition test, plant mortality; assay type: in vivo
# Excerpt: as §1, §2
# Echinochloa crus [6] = details: for Echinochloa crus mortality, measured value: 20 days after treatment; for plant mortality, measured value: Echinochloa crus
# Excerpt: as §1, §2
# Xanthium spinosum = experiment: whole plant or invertebrate
# Excerpt: as §1, §2
# Lamium amplexicaule = experiment: Dry field farming herbicidal composition test, plant mortality; assay type: in vivo; details: in % (unit assumed)
# Excerpt: as §1, §2
# Monochoria vaginalis = experiment: Paddy field farming herbicidal composition test, plant mortality; assay type: in vivo; details: Pontederia vaginalis, read-out: Monochoria vaginalis mortality (measured value)
# Excerpt: as §1, §2
# Aeschynomene indica [7] = experiment: Dry field farming herbicidal composition test, plant mortality; assay type: in vivo
# Excerpt: as §1, §2
# wild amaranth = experiment: Nonselective composition of 1 uracil compound and 2 herbicidally active compounds, plant mortality; assay type: in vivo; details: Amaranthus caudatus, 480 h; 8 g ai/ha; read-out: Wild amaranth mortality (measured value)
# Excerpt: as §1, §2
# Echinochloa crus [8] = experiment: Dry field farming herbicidal composition test, plant mortality; assay type: in vivo
# Excerpt: as §1, §2
# wheat = experiment: Dry field farming herbicidal composition test, plant mortality (crop)
# Excerpt: as §1, §2
# ryegrass = experiment: Nonselective composition of 1 uracil compound and 2 herbicidally active compounds, plant mortality; assay type: in vivo; details: 480 h; 8 g ai/ha; read-out: ryegrass mortality (measured value)
# Excerpt: as §1, §2
# Porippa islandica = experiment: Dry field farming herbicidal composition test, plant mortality; assay type: in vivo
# Excerpt: as §1, §2
# Alopecurus aequalis = experiment: as above; assay type: in vivo; details: in % (unit assumed)
# Excerpt: as §1, §2
# Ludwigia prostrate = experiment: Paddy field farming herbicidal composition test, plant mortality; assay type: in vivo
# Excerpt: as §1, §2
# Abutilon theophrasti [9] = experiment: Dry field farming herbicidal composition test, plant mortality; assay type: in vivo; details: Abutilon theophrasti, read-out: Abutilon theophrasti mortality, measured value
# Excerpt: as §1, §2
# [10] = 480 h, read-out: Abutilon theophrasti mortality, measured value
# [11] = 480 h, read-out: Aeschynomene indica mortality, measured value
# [12] = read-out: plant mortality, measured value, 4 g/ha
# [13] = read-out: plant mortality, measured value, 8 g/ha
# [14] = read-out: plant mortality, measured value, 16 g/ha
# [15] = 480 h, read-out: Xanthium spinosum mortality, measured value
smiles,measurement,setting,value
"COC(=O)CCNC(=O)C(C)Sc1cc(-n2c(=O)cc(C(F)(F)F)n(C)c2=O)c(F)cc1Cl (stereo not drawn) [Compound 36, 3-[{2-[2-chloro-5-(3,6-dihydro-3-methyl-2,6-dioxo-4-trifluoromethyl-1(2H)-pyrimidinyl)-4-fluorophenylthio]-1-oxopropyl}amino]propionic acid methyl ester]",pest or weed control at 5 g/ha,Echinochloa crus [1],0%
same,mortality at 4 g/ha,Abutilon theophrasti [2]; [10],11%
same,mortality at 8 g/ha,Abutilon theophrasti [2]; [10],38%
same,mortality at 16 g/ha,Abutilon theophrasti [2]; [10],51%
same,mortality at 20 g/ha,Abutilon theophrasti [2]; [10],58%
same,mortality at 40 g/ha,Abutilon theophrasti [2]; [10],100%
same,mortality at 80 g/ha,Abutilon theophrasti [2]; [10],100%
same,pest or weed control at 4 g/ha,"Abutilon theophrasti [2]; read-out: Data (measured value) Abutilon theophrasti, 4 g/ha",15%
same,pest or weed control at 8 g/ha,"Abutilon theophrasti [2]; read-out: Data (measured value) Abutilon theophrasti, 8 g/ha",35%
same,pest or weed control at 16 g/ha,"Abutilon theophrasti [2]; read-out: Data (measured value) Abutilon theophrasti, 16 g/ha",47%
same,pest or weed control at 20 g/ha,"Abutilon theophrasti [2]; read-out: Data (measured value) Abutilon theophrasti, 20 g/ha",58%
same,pest or weed control at 40 g/ha,"Abutilon theophrasti [2]; read-out: Data (measured value) Abutilon theophrasti, 40 g/ha",100%
same,pest or weed control at 80 g/ha,"Abutilon theophrasti [2]; read-out: Data (measured value) Abutilon theophrasti, 80 g/ha",100%
same,Data (measured value) Digitaria sanguinalis,Digitaria sanguinalis [3]; 4 g/ha,0
same,"Digitaria sanguinalis mortality, measured value",Digitaria sanguinalis [3]; 4 g/ha,0%
same,"plant mortality, measured value","Digitaria sanguinalis [3]; 4 g/ha, Digitaria sanguinalis",0
same,"Digitaria sanguinalis mortality, measured value",Digitaria sanguinalis [3]; 8 g/ha,5%
same,Data (measured value) Digitaria sanguinalis,Digitaria sanguinalis [3]; 16 g/ha,15
same,"Digitaria sanguinalis mortality, measured value",Digitaria sanguinalis [3]; 16 g/ha,16%
same,Data (measured value) Digitaria sanguinalis,Digitaria sanguinalis [3]; 20 g/ha,19
same,"Digitaria sanguinalis mortality, measured value",Digitaria sanguinalis [3]; 20 g/ha,19%
same,Data (measured value) Digitaria sanguinalis,Digitaria sanguinalis [3]; 40 g/ha,43
same,"Digitaria sanguinalis mortality, measured value",Digitaria sanguinalis [3]; 40 g/ha,43%
same,Data (measured value) Digitaria sanguinalis,Digitaria sanguinalis [3]; 80 g/ha,71
same,"Digitaria sanguinalis mortality, measured value",Digitaria sanguinalis [3]; 80 g/ha,71%
same,"Capsella bursapastoris mortality, measured value",Capsella bursapastoris; 1 g/ha,5
same,"Capsella bursapastoris mortality, measured value",Capsella bursapastoris; 2 g/ha,25
same,"Capsella bursapastoris mortality, measured value",Capsella bursapastoris; 4 g/ha,45
same,mortality at 4 g/ha,Aeschynomene indica [4]; [11],26%
same,mortality at 8 g/ha,Aeschynomene indica [4]; [11],52%
same,mortality at 16 g/ha,Aeschynomene indica [4]; [11],69%
same,mortality at 20 g/ha,Aeschynomene indica [4]; [11],56%
same,mortality at 40 g/ha,Aeschynomene indica [4]; [11],100%
same,mortality at 80 g/ha,Aeschynomene indica [4]; [11],100%
same,pest or weed control at 4 g/ha,"Aeschynomene indica [4]; read-out: Data (measured value) Aeschynomene indica, 4 g/ha",19%
same,pest or weed control at 8 g/ha,"Aeschynomene indica [4]; read-out: Data (measured value) Aeschynomene indica, 8 g/ha",46%
same,pest or weed control at 16 g/ha,"Aeschynomene indica [4]; read-out: Data (measured value) Aeschynomene indica, 16 g/ha",61%
same,pest or weed control at 20 g/ha,"Aeschynomene indica [4]; read-out: Data (measured value) Aeschynomene indica, 20 g/ha",56%
same,pest or weed control at 40 g/ha,"Aeschynomene indica [4]; read-out: Data (measured value) Aeschynomene indica, 40 g/ha",100%
same,pest or weed control at 80 g/ha,"Aeschynomene indica [4]; read-out: Data (measured value) Aeschynomene indica, 80 g/ha",100%
same,pest or weed control at 4 g/ha,Aeschynomene indica [4]; [12],20%
same,pest or weed control at 8 g/ha,Aeschynomene indica [4]; [13],45%
same,pest or weed control at 16 g/ha,Aeschynomene indica [4]; [14],65%
same,Rice plant mortality (measured value),rice plant; 5 g/ha,0
same,Rice plant mortality (measured value),rice plant; 10 g/ha,1
same,"Digitaria sanguinalis mortality, measured value",Digitaria sanguinalis [5]; 4 g/ha,10%
same,pest or weed control at 1 g/ha,"Digitaria sanguinalis [5]; Digitaria sanguinalis, 1 g/ha, read-out: Digitaria sanguinalis mortality, measured value",0%
same,pest or weed control at 2 g/ha,"Digitaria sanguinalis [5]; Digitaria sanguinalis, 2 g/ha, read-out: Digitaria sanguinalis mortality, measured value",0%
same,pest or weed control at 4 g/ha,"Digitaria sanguinalis [5]; Digitaria sanguinalis, 4 g/ha, read-out: Digitaria sanguinalis mortality, measured value",10%
same,Data (measured value) Echinochloa crus,Echinochloa crus [6]; 4 g/ha,0
same,"Echinochloa crus mortality, measured value",Echinochloa crus [6]; 4 g/ha,0%
same,"plant mortality, measured value",Echinochloa crus [6]; 4 g/ha,0
same,Data (measured value) Echinochloa crus,Echinochloa crus [6]; 8 g/ha,5
same,"Echinochloa crus mortality, measured value",Echinochloa crus [6]; 8 g/ha,5%
same,"plant mortality, measured value",Echinochloa crus [6]; 8 g/ha,5
same,"Echinochloa crus mortality, measured value",Echinochloa crus [6]; 16 g/ha,10%
same,Data (measured value) Echinochloa crus,Echinochloa crus [6]; 20 g/ha,17
same,"Echinochloa crus mortality, measured value",Echinochloa crus [6]; 20 g/ha,17%
same,Data (measured value) Echinochloa crus,Echinochloa crus [6]; 40 g/ha,37
same,"Echinochloa crus mortality, measured value",Echinochloa crus [6]; 40 g/ha,37%
same,Data (measured value) Echinochloa crus,Echinochloa crus [6]; 80 g/ha,61
same,"Echinochloa crus mortality, measured value",Echinochloa crus [6]; 80 g/ha,61%
same,mortality at 4 g/ha,Xanthium spinosum; [15],21%
same,mortality at 8 g/ha,Xanthium spinosum; [15],42%
same,mortality at 16 g/ha,Xanthium spinosum; [15],56%
same,mortality at 20 g/ha,Xanthium spinosum; [15],51%
same,mortality at 40 g/ha,Xanthium spinosum; [15],90%
same,mortality at 80 g/ha,Xanthium spinosum; [15],100%
same,pest or weed control at 4 g/ha,"Xanthium spinosum; read-out: Data (measured value) Xanthium spinosum, 4 g/ha",24%
same,pest or weed control at 8 g/ha,"Xanthium spinosum; read-out: Data (measured value) Xanthium spinosum, 8 g/ha",59%
same,pest or weed control at 16 g/ha,"Xanthium spinosum; read-out: Data (measured value) Xanthium spinosum, 16 g/ha",79%
same,pest or weed control at 20 g/ha,"Xanthium spinosum; read-out: Data (measured value) Xanthium spinosum, 20 g/ha",51%
same,pest or weed control at 40 g/ha,"Xanthium spinosum; read-out: Data (measured value) Xanthium spinosum, 40 g/ha",90%
same,pest or weed control at 80 g/ha,"Xanthium spinosum; read-out: Data (measured value) Xanthium spinosum, 80 g/ha",100%
same,pest or weed control at 4 g/ha,Xanthium spinosum; [12],25%
same,pest or weed control at 8 g/ha,Xanthium spinosum; [13],50%
same,pest or weed control at 16 g/ha,Xanthium spinosum; [14],70%
same,"Lamium amplexicaule mortality, measured value",Lamium amplexicaule; 1 g/ha,10
same,"Lamium amplexicaule mortality, measured value",Lamium amplexicaule; 2 g/ha,30
same,"Lamium amplexicaule mortality, measured value",Lamium amplexicaule; 4 g/ha,50
same,pest or weed control at […],Monochoria vaginalis; 2.5 g/ha,5%
same,pest or weed control at 5 g/ha,Monochoria vaginalis; 5 g/ha,30%
same,pest or weed control at 10 g/ha,Monochoria vaginalis; 10 g/ha,50%
same,"Aeschynomene indica mortality, measured value",Aeschynomene indica [7]; 1 g/ha,10%
same,"Aeschynomene indica mortality, measured value",Aeschynomene indica [7]; 4 g/ha,45%
same,pest or weed control at 1 g/ha,"Aeschynomene indica [7]; Aeschynomene indica, 1 g/ha, read-out: Aeschynomene indica mortality, measured value",10%
same,pest or weed control at 2 g/ha,"Aeschynomene indica [7]; Aeschynomene indica, 2 g/ha, read-out: Aeschynomene indica mortality, measured value",25%
same,pest or weed control at 4 g/ha,"Aeschynomene indica [7]; Aeschynomene indica, 4 g/ha, read-out: Aeschynomene indica mortality, measured value",45%
same,pest or weed control at 8 g/ha,wild amaranth,40%
same,"Echinochloa crus mortality, measured value",Echinochloa crus [8]; 4 g/ha,5%
same,pest or weed control at 1 g/ha,"Echinochloa crus [8]; Echinochloa, 1 g/ha, read-out: Echinochloa crus mortality, measured value",0%
same,pest or weed control at 2 g/ha,"Echinochloa crus [8]; Echinochloa, 2 g/ha, read-out: Echinochloa crus mortality, measured value",0%
same,pest or weed control at 4 g/ha,"Echinochloa crus [8]; Echinochloa, 4 g/ha, read-out: Echinochloa crus mortality, measured value",5%
same,"Wheat mortality, measured value",wheat; 1 g/ha,0
same,"Wheat mortality, measured value",wheat; 2 g/ha,0
same,"Wheat mortality, measured value",wheat; 4 g/ha,1
same,pest or weed control at 8 g/ha,ryegrass,30%
same,"Corn mortality, measured value",corn; 1 g/ha,0
same,"Corn mortality, measured value",corn; 2 g/ha,0
same,"Corn mortality, measured value",corn; 4 g/ha,1
same,"Porippa islandica mortality, measured value",Porippa islandica; 1 g/ha,10
same,"Porippa islandica mortality, measured value",Porippa islandica; 2 g/ha,30
same,"Porippa islandica mortality, measured value",Porippa islandica; 4 g/ha,55
same,"Alopecurus aequalis mortality, measured value",Alopecurus aequalis; 1 g/ha,0
same,"Alopecurus aequalis mortality, measured value",Alopecurus aequalis; 2 g/ha,0
same,"Alopecurus aequalis mortality, measured value",Alopecurus aequalis; 4 g/ha,10
same,Ludwigia prostrate mortality (measured value),Ludwigia prostrate; 5 g/ha,35%
same,Ludwigia prostrate mortality (measured value),Ludwigia prostrate; 10 g/ha,55%
same,pest or weed control at 1 g/ha,Abutilon theophrasti [9]; 1 g/ha,15%
same,pest or weed control at 2 g/ha,Abutilon theophrasti [9]; 2 g/ha,35%
same,pest or weed control at 4 g/ha,Abutilon theophrasti [9]; 4 g/ha,50%
